Consider 5 compounds from patent US20240124441A1, “POLYMORPH OF LATREPIRDINE DIHYDROCHLORIDE” (BIGESPAS LTD., priority 2021, published 2024).

The nature of series [1]: Bioavailability study: Latrepirdine concentration in brain tissue after oro-gastric gavage. Conditions: for Concentration of Latrepirdine in brain tissue: 10 mg/kg oro-gastric gavage, suspension in corn oil, rat, 10 mg/kg.
Experimental: (§1) Those crystalline polymorphs and DMB-I were used in an animal study to evaluate absorption of crystalline forms of Latrepirdine from gastrointestinal tract into blood serum and brain tissues of the animals. Male Wistar rats were used in animal study. Rats were randomly divided into 5 groups, each group containing 28 animals, for administration of respective polymorphic forms of Latrepirdine. Respective polymorphic form of Latrepirdine was administered by oro-gastric gavage as a suspension in corn oil at a dose of 10 mg/kg. Animals were euthanized at 15, 30, 60, and 120 min after administration of Latrepirdine (7 animals at each timepoint) followed by collection of blood serum and brain tissue samples that were analyzed for Latrepirdine content by LCMS. Analyses were performed using Prominence LCMS-850 equipped with Kinetex C18 Phenomenex column. Statistical bi-factorial ANOVA analysis of analytical data was performed using Statistica-7.1. software.
The nature of series [2]: Bioavailability study: Latrepirdine concentration in blood serum after oro-gastric gavage.
Experimental: as §1
The conditions of series [3]: rat, in vivo, po.
Experimental: as §1
For series [4] the following is noted: rat, in vivo, po. The source holds these as a separate data set.
Experimental: as §1

Read-outs that look alike come from different tables or passages of the source.

Regarding `Cc1ccc2c(c1)c1c(n2CCc2ccc(C)nc2)CCN(C)C1` [Polymorph A, 2,8-dimethyl-5-[2-(6-methylpyridin-3-yl)ethyl]-3,4-dihydro-1H-pyrido[4,3-b]indole], the “Concentration of Latrepirdine in brain tissue” value (“Concentration … in brain tissue” for short) worked out at 22.4 ng/mL in series [1] (15 min after administration, listed as A); 5.6 ng/mL in series [1] (30 min after administration, listed as A); 76.8 ng/mL in series [1] (60 min after administration, listed as A); 24.4 ng/mL in series [1] (120 min after administration, listed as A). Further, the “Concentration of Latrepirdine in blood serum” value (from here on “Concentration … in blood serum”) in series [2] (15 min after administration, 10 mg/kg oro-gastric gavage, suspension in corn oil, rat, listed as A, 10 mg/kg) turned out to be 2.0 ng/mL; in series [2] (60 min after administration, 10 mg/kg oro-gastric gavage, suspension in corn oil, rat, listed as A, 10 mg/kg), 3.9 ng/mL; in series [2] (120 min after administration, 10 mg/kg oro-gastric gavage, suspension in corn oil, rat, listed as A, 10 mg/kg), 2.0 ng/mL. Also, the concentration at 30 min in series [2] (male, Wistar, rat, serum, oral, 10 mg/kg, Concentration of Latrepirdine in blood serum, 30 min after administration, 10 mg/kg oro-gastric gavage, suspension in corn oil, rat) was found to be 7 ng/mL.

For `Cc1ccc2c(c1)c1c(n2CCc2ccc(C)nc2)CCN(C)C1` [Polymorph B, 2,8-dimethyl-5-[2-(6-methylpyridin-3-yl)ethyl]-3,4-dihydro-1H-pyrido[4,3-b]indole], the “Concentration … in brain tissue” value is 23.5 ng/mL in series [1] (15 min after administration, listed as B); 34.2 ng/mL in series [1] (30 min after administration, listed as B); 54.4 ng/mL in series [1] (60 min after administration, listed as B); 29.7 ng/mL in series [1] (120 min after administration, listed as B). Also, the “Concentration … in blood serum” value worked out at 5.9 ng/mL in series [2] (15 min after administration, 10 mg/kg oro-gastric gavage, suspension in corn oil, rat, listed as B, 10 mg/kg); 5.6 ng/mL in series [2] (30 min after administration, 10 mg/kg oro-gastric gavage, suspension in corn oil, rat, listed as B, 10 mg/kg); 7.4 ng/mL in series [2] (60 min after administration, 10 mg/kg oro-gastric gavage, suspension in corn oil, rat, listed as B, 10 mg/kg); 1.0 ng/mL in series [2] (120 min after administration, 10 mg/kg oro-gastric gavage, suspension in corn oil, rat, listed as B, 10 mg/kg).

As to `Cc1ccc2c(c1)c1c(n2CCc2ccc(C)nc2)CCN(C)C1` [Polymorph C, 2,8-dimethyl-5-[2-(6-methylpyridin-3-yl)ethyl]-3,4-dihydro-1H-pyrido[4,3-b]indole], the “Concentration … in brain tissue” value in series [1] (15 min after administration, listed as C) was 25.1 ng/mL; in series [1] (30 min after administration, listed as C), 15.0 ng/mL; in series [1] (60 min after administration, listed as C), 32.1 ng/mL; in series [1] (120 min after administration, listed as C), 39.1 ng/mL. Further, the “Concentration … in blood serum” value in series [2] (15 min after administration, 10 mg/kg oro-gastric gavage, suspension in corn oil, rat, listed as C, 10 mg/kg) came out at 7.4 ng/mL; in series [2] (30 min after administration, 10 mg/kg oro-gastric gavage, suspension in corn oil, rat, listed as C, 10 mg/kg), 6.8 ng/mL; in series [2] (60 min after administration, 10 mg/kg oro-gastric gavage, suspension in corn oil, rat, listed as C, 10 mg/kg), 6.7 ng/mL; in series [2] (120 min after administration, 10 mg/kg oro-gastric gavage, suspension in corn oil, rat, listed as C, 10 mg/kg), 7.0 ng/mL.

In the case of `Cc1ccc2c(c1)c1c(n2CCc2ccc(C)nc2)CCN(C)C1` [Polymorph DMB-I, 2,8-dimethyl-5-[2-(6-methylpyridin-3-yl)ethyl]-3,4-dihydro-1H-pyrido[4,3-b]indole], the “Median values of Cmax compared among the five tested polymorphic forms” value in series [3] and in series [4] was “highest value” each time. The “Concentration … in brain tissue” value was 45.1 ng/mL in series [1] (15 min after administration, listed as DMB-I); 26.8 ng/mL in series [1] (30 min after administration, listed as DMB-I); 106.0 ng/mL in series [1] (60 min after administration, listed as DMB-I); 49.8 ng/mL in series [1] (120 min after administration, listed as DMB-I). In addition, the “Cmax exceeds the Cmax of other polymorphic forms by” value is on record as 32-260% in series [1] (brain tissue, intragastric administration, versus the other four polymorphic forms) and 12-240% in series [2] (blood plasma, intragastric administration, versus the other four polymorphic forms). Further, the “Concentration … in blood serum” value in series [2] (15 min after administration, 10 mg/kg oro-gastric gavage, suspension in corn oil, rat, listed as DMB-I, 10 mg/kg) is 12.8 ng/mL; in series [2] (30 min after administration, 10 mg/kg oro-gastric gavage, suspension in corn oil, rat, listed as DMB-I, 10 mg/kg), 10.0 ng/mL; in series [2] (60 min after administration, 10 mg/kg oro-gastric gavage, suspension in corn oil, rat, listed as DMB-I, 10 mg/kg), 9.7 ng/mL; in series [2] (120 min after administration, 10 mg/kg oro-gastric gavage, suspension in corn oil, rat, listed as DMB-I, 10 mg/kg), 10.4 ng/mL. Moreover, the Tmax in series [2] (male, Wistar, rat, plasma, po, 10 mg/kg) is 15 min.

As to `Cc1ccc2c(c1)c1c(n2CCc2ccc(C)nc2)CCN(C)C1` [Polymorph F, 2,8-dimethyl-5-[2-(6-methylpyridin-3-yl)ethyl]-3,4-dihydro-1H-pyrido[4,3-b]indole], the “Concentration … in brain tissue” value was 20.2 ng/mL in series [1] (15 min after administration, listed as F); 32.2 ng/mL in series [1] (30 min after administration, listed as F); 68.5 ng/mL in series [1] (60 min after administration, listed as F); 45.1 ng/mL in series [1] (120 min after administration, listed as F). For the same compound, the “Concentration … in blood serum” value turned out to be 4.8 ng/mL in series [2] (15 min after administration, 10 mg/kg oro-gastric gavage, suspension in corn oil, rat, listed as F, 10 mg/kg); 6.3 ng/mL in series [2] (30 min after administration, 10 mg/kg oro-gastric gavage, suspension in corn oil, rat, listed as F, 10 mg/kg); 9.4 ng/mL in series [2] (60 min after administration, 10 mg/kg oro-gastric gavage, suspension in corn oil, rat, listed as F, 10 mg/kg); 3.6 ng/mL in series [2] (120 min after administration, 10 mg/kg oro-gastric gavage, suspension in corn oil, rat, listed as F, 10 mg/kg).

The term Tmax denotes the time from dosing to the highest level.
